Data as given in paper PMC10352165, “Miniaturized method for the quantification of persistent organic pollutants and their metabolites in HepG2 cells: assessment of their biotransformation” (Analytical and Bioanalytical Chemistry, 2023).
In brackets after ≈: the same amount, converted by molar mass.

Key:
[1] = system: HepG2 cells; set-up: method as in PMID 31426631; conditions: 10% FBS in medium, evaporation losses considered, glass vials; cited from earlier work
[2] = system: HepG2 cells; conditions: 15 mg·L^−1
[3] = at 35 °C; cited from earlier work
[4] = system: HepG2; conditions: HepG2 at 48 h of PHE exposure, cited from earlier work
[5] = MTT cell viability assay; assay type: cell-based; conditions: human
Description: (§1) Cell viability was determined by MTT assay. First, 10,000 cells/well were cultured in 96-well plates for 24 h at 37 °C and 5% CO2. After that time, the culture medium was replaced with a culture medium containing different concentrations (0–70 mg·L^−1) of PHE and BDE-47 for 48 h of exposure under the same incubated conditions. After that, 20 μL MTT solution (5 mg·mL^−1 diluted in PBS) was added and incubated for the following 4 h. Viable cellular metabolic reduction of MTT produced formazan crystals, which were dissolved in 100 μL sterile DMSO and quantified with absorbance measurement at 595 nm in a Multiskan Sky High ([…] Thermo Fisher). The cell viability was estimated by using Eq. (1). 1 %Viability=Aexp-Ablank/Acontrol-Ablank∙100 where Acontrol, Aexp, and Ablank are the mean absorbance value (6 replicates) of the control group (cells without pollutant), experimental group, and blank group (only cell culture medium), respectively. Five independent assays were carried out with the same conditions. The results have been subsequently used for the design of the biotransformation experiment.
(§2) Cell viability of each concentration was estimated by using Eq. (1) according to the absorbance values obtained in the MTT assay. The dose–response values were fitted by Origin Pro 2021 with a polynomial equation (shown in Fig. 3) from which the LC value was estimated. LC50 (50% viability) and LC30 (70% viability) were estimated by the polynomial fitting of the mean cell viability data obtained from three independent experiments. Cell viability in HepG2 decreased by 30% at 22 mg·L^−1 PHE and 38 mg·L^−1 BDE-47 and up to 50% at 38 mg·L^−1 PHE and 46 mg·L^−1 BDE-47. […] The calculated LC30 values have been subsequently used for the design of the biotransformation experiments.

[6] = system: HepG2 cells; assay: MTT cell viability assay; assay type: cell-based; conditions: human, 48 h
Description: as §1, §2

[7] = set-up: method as in PMID 18318592; conditions: cited from earlier work
[8] = system: HepG2 cells; assay: Plastic and glass plate exposure test (loss and cell uptake of compound); assay type: in vitro ADME
Description: Exposure of HepG2 cells (3 replicates) was performed by initially seeding approximately 2·10^6 cells in glass P100 plates and being incubated for 24 h at 37 °C (5% CO2) with 10 mL of DMEM supplemented with 10% FBS. […] The nominal exposure concentration was estimated by the previous MTT viability study, in which, more than 70% of the cells were alive at the end of the test (lethal concentration 30, LC30) to ensure good metabolizing capacity. Part of the contaminated medium was stored to determine the concentration at time 0 of exposure (“t = 0 h”). In addition, to consider possible analyte loss, a plate of control cells without pollutant (“blank”) and a plate with contaminated medium without cells (“no cells”) were incubated under the same conditions. […] Since the determination of PHE is carried out by LC-FL and its metabolites by GC–MS, the cell pellet was divided in half for each analysis. For this purpose, the adherent cells were lifted in suspension by trypsinization, and the total volume of the homogenous cell suspension was divided in half. Then, the resulting cell pellet from each fraction was collected by centrifuging at 1500 rpm for 5 min and removing the medium. However, for the determination of BDE-47 and its metabolites, the complete pellet obtained is analyzed because a simultaneous extraction is performed for both analyses. The obtained pellet was dried under a gentle stream of nitrogen, weighed on a precision analytical balance (± 0.00001 g), and stored at − 4 °C until analysis. Three independent assays were carried out with the same conditions, each with 3 replicates (plates) of the same concentration.
A major problem in in vitro cell assays is the loss of compound during the exposure process to estimate the effective concentration available to the cell and to correctly assess the toxicity and metabolization kinetics of POPs, as most of them are hydrophobic and semi-volatile. Firstly, when concentration was determined in the exposure and no cells medium samples at the end of the test (48 h) using plastic Petri dishes, a loss of 89% and 84% compared to the t = 0 h sample was found in the cells and no cells sample respectively (Table 1). This loss, similar to that found in previous studies, is mainly explained by absorption into polystyrene, the main component of in vitro culture plates or evaporation processes because these compounds have a Henry law constant (KH) between 1 and 10 Pa·m^3·mol^−1 [11] (7.90 Pa·m^3·mol^−1 for PHE at 35 °C [13] and 3.78 Pa·m^3·mol^−1 for BDE-47 at 40 °C [40]). The remaining concentration in the medium that had not been lost by evaporation or absorbed into the cells was retained in the protein serum. […] A fraction dissolved in the medium accessible to the cells of 3.5% for anthracene (log Kow 4.5) was obtained introducing the conditions of this work into the chemical partitioning model developed by Fischer et al.. […] Therefore, it should be considered to avoid the use of plastic in tests that requires P100 plates with a very high surface area/volume ratio of the medium when studying neutral chemicals with a log Kow > 3, as is the case of PHE (log Kow 4.46 [39]) and BDE-47 (log Kow 6.81 [26]).
Using glass plates, a loss of 47% and 26% for cells and no cells samples, respectively, was found at the end of the assay (48 h) (Table 1), and the concentration absorbed by the cells increased from 4 ± 1 to 18 ± 3%. For BDE-47, a loss of only 14% because of volatilization and an absorbed concentration of 24 ± 2% resulted using a glass plate, as BDE-47 is less volatile and more hydrophobic than PHE, favoring cell uptake. Birch et al. calculated a cell-free fraction of 13% for PHE in HepG2 cells with 10% of FBS in the medium considering the evaporation losses using glass vials. […]

[9] = cited from earlier work

Structure (SMILES): c1ccc2c(c1)ccc1ccccc12 [PHE, phenanthrene]
- cell-free fraction [1]: 13%
- Concentration in medium, t = 0 h ([2]; 0 h): 12000 ± 1000 ng/mL
- Concentration in medium, no cells ([2]; 48 h): 8000 ± 2000 ng/mL
- Concentration in cells, samples (n = 3) ([2]; human, 48 h): 521 ± 144 µg/g
- Concentration in medium, samples ([2]; human, 48 h): 5700 ± 700 ng/mL
- Henry law constant (KH) [3]: 7.90 Pa·m^3·mol^−1
- LC50 [4]: 20.3 µg/mL (≈ 114 µM)
- CC50 ([4]; read-out: LC50 (the source's name)): 114 µM
- CC50 at 48 h [5]: 38 µg/mL (≈ 213 µM)
- LC30 (70% viability; cell viability decreased by 30%) [6]: 22 µg/mL (≈ 123 µM)
- absorption when glass is used ([7]; glass): 2%
- initial concentration absorbed on polystyrene ([7]; polystyrene): 94%
- Conc. PHE Glass plate exposure ([8]; 0 h): 4370 ng/mL
- Conc. PHE Plastic plate exposure ([8]; 0 h): 5570 ng/mL
- Conc. PHE Glass plate exposure ([8]; 24 h): 3690 ng/mL
- Conc. PHE Glass plate exposure ([8]; 48 h): 3160 ng/mL
- Conc. PHE Plastic plate exposure ([8]; 48 h): 880 ng/mL
- loss at the end of the assay ([8]; 48 h): 26%
- loss compared to the t = 0 h sample ([8]; 48 h): 84%
- concentration absorbed by the cells ([8]; human, 48 h): 18 ± 3%
- loss at the end of the assay ([8]; human, 48 h): 47%
- loss compared to the t = 0 h sample ([8]; human, 48 h): 89%
- taken up by the cells ([8]; human, 48 h): 4 ± 1%
- log Kow [9]: 4.46
